Data taken from patent US10556926B2, “Synthetic artificial peptides with antimicrobial effect” (priority 2014, dated 2020).
Where two headings read alike, the source gives them in different places. No end group written: not given here.

Assays:
E. coli DH5α = tested on: E. coli DH5α
Procedure: (§1) The minimum inhibitory concentration (MIC) of the peptides was carried out by way of example against gram(−) E. coli DH5α (and gram(+) Staphylococcus xylosus (both Deutsche Sammlung von Mikroorganismen and Zellkulturen, DSMZ) in a standardized microdilution method according to the general guidelines of the CLSI (Clinical and Laboratory Standards Institute 2006) and EUCAST (European Committee for Antimicrobial Susceptibility Testing of the European Society of Clinical Microbiology and Infectious Diseases 2003) with slight adaptations to the investigation of cationic antimicrobial peptides (Wiegand et al. 2008). The bacteria cells were cultivated in Mueller-Hinton-Boullion (MHB) to an optical density of 0.4 to 0.6 at 600 nm wavelength, corresponding to about 4·10^8 bacteria per ml. Then, the bacteria cultures were diluted to a bacteria concentration of about 1·10^5 bacteria per ml in sterile MHB. Using the peptides, series of 2-fold dilutions starting at 128 μM to the smallest dilution of 0.5 μM in MHB were prepared. The peptide dilutions were mixed with the dilute bacteria cultures in a […] in the chambers of a 96-well polypropylene microtiter plate (Starlab, Hamburg, Germany), so that the peptides were present in an end concentration between 64 μM and 0.25 μM at a bacteria concentration of 5·10^4 bacteria/ml. Sterile MHB served as negative control, and the positive control used as the corresponding bacteria concentration in MHB without the addition of peptide. The microtiter plates were incubated for 18 hours at 37° C. with shaking at 120 rpm in a climatically controlled chamber. After the incubation, the bacteria concentration was determined by renewed absorption measurement at a wavelength of 600 nm.

Staphylococcus xylosus = tested on: Staphylococcus xylosus
Procedure: as §1

[1] = tested on: human histiocytic lymphoma cell line U937; experiment: Cytotoxicity, direct membrane damage (CytoTox 96), LD50; type: cell-based; settings: U937, two hours at 37° C., 0.25-64 μM
Procedure: The direct membrane damage was investigated with the help of the CytoTox 96 Non-Radioactive Cytotoxicity Assay (Promega, Mannheim, Germany). For this purpose, the cells were sedimented at 100 g for ten minutes at 4° C., and 50 μl of the resulting culture supernatant were added to 50 μl of the CytoTox substrate mix. After an incubation time of 30 minutes in the dark at room temperature, 50 μl of the CytoTox stopping solution were added to the sample and the absorption was measured at 490 nm. To determine the LD50 value, the measurement value of the negative control was deducted from the absorption values and divided by the measurement value of the permeabilization control. The calculated values were plotted graphically against the peptide concentration and fitted using the Origin pro 8.1 G Software according to a sigmoidal model and the LD50 values were ascertained from this. The calculation was carried out analogously to example 5 by reference to the solution of equation 5.1 for the case y=50, where y in this case corresponds to the relative cytotoxicity in percent and x corresponds to the peptide concentration in μM. Representative graphical evaluations of LD50 values are shown in FIG. 6 by reference to the measurement results for the reference peptides BMAP-27, protamine and KL-helix, and also the peptide O1 according to the invention.

[2] = tested on: human histiocytic lymphoma cell line U937; experiment: Long-term growth inhibition, minimum toxic concentration (MTC)
Procedure: The cytotoxic potential of the antimicrobial peptides was determined by way of example by reference to the human histiocytic lymphoma cell line U937 (DSMZ). The influence of the peptides on the permeability of the cell membrane and their longer-term growth-inhibiting effect was investigated. 15 ml of RPMI 1640 medium with 2 mM glutamine and 10% FCS (Biochrom, Berlin, Germany) were inoculated with 1·10^5 cells per ml and cultivated for three days at 37° in T75 cell culture bottles (TPP, Trasadingen, Switzerland) with constant gassing with 5% CO2 in a climatically controlled chamber. The medium was admixed with 10 U/ml penicillin and […] streptomycin (both AppliChem, Darmstadt, Germany) to avoid bacterial contaminations, with no further antibiotics being added during the subsequent recultivation. Before each experiment, the cells were washed by centrifugation at 100 g for five minutes and subsequent resuspension in RPMI 1640 medium with 2 mM glutamine and 10% FCS in each case two times and adjusted to a concentration of 1·10^5 cells per ml. Finally, in each case 100 μl of the U937 cells were transferred to the reaction chambers of a sterile 96-well polypropylene microtiter plate and admixed with in each case 100 μl of a prediluted antimicrobial peptide in RPMI 1640 medium without antibiotic addition, such that end concentrations of in each case 5·10^4 cells per ml at peptide concentrations between 0.25 μM and 64 μM were present. The negative control used was samples without antimicrobial peptide, while Triton X-100 (AppliChem) was used in an end concentration of 5% as positive control for the permeabilization. The samples were cultivated for two hours at 37° C. and with continuous gassing with 5% CO2 in a climatically controlled chamber. Then, in each case 100 μl of each sample were removed and transferred to new sterile microtiter plates for determining the direct membrane damage. The remaining 100 μl of the samples were cultivated for at least four further days.
For this purpose, 10 μl of lysing solution were added to in each case 100 μl of cell suspension and incubated for 60 minutes at 37° C. Then, the cell culture supernatants were investigated as described above. The lowest peptide concentration at which complete suppression of the cell growth was established after four days was stipulated as the minimum toxic concentration (MTC).

[3] = MHB, 18 hours at 37° C., mean of four test series

Row | Substance | MIC E. coli (E. coli DH5α; DH5α, 18 h) [µM] | MIC S. xylosus (Staphylococcus xylosus; 18 h) [µM] | Toxicity LD50 [1] [µM] | Toxicity MTC (minimum toxic concentration) [2] [µM] | MIC E. coli (E. coli DH5α; [3]) [µM] | MIC S. xylosus (Staphylococcus xylosus; [3]) [µM]
1 | GSGILILIKRK [M5] | >64 | >64 | >64 | >64 | – | –
2 | ILIKRK [N7, ILIKRK] | >64 | >64 | >64 | >64 | – | –
3 | ILILIKRK [N5] | 64 | 64 | >64 | >64 | – | –
4 | ILILILILKRK [M3] | >64 | >64 | >64 | >64 | – | –
5 | KKKFFFFFKKK [S8] | 16 | 4 | >64 | – | – | –
6 | KKKIIIIIIKKK-NH2 [O1′] | – | – | – | – | 4 | 0.25
7 | KKKIIIIIKKK [S2] | 8 | 0.5 | >64 | – | – | –
8 | KKKKKIIIIIDDDDD [D1] | >64 | >64 | >64 | >64 | – | –
9 | KKKKKIIIIIDDDDK [D8] | >64 | >64 | >64 | >64 | – | –
10 | KKKKKIIIIIDDDKK [D7] | >64 | >64 | >64 | >64 | – | –
11 | KKKKKIIIIIDKKKK [D6] | 32 | 16 | >64 | >64 | – | –
12 | KKKKKIIIIIKDDDD [D2] | >64 | >64 | >64 | >64 | – | –
13 | KKKKKIIIIIKKKDD [D3] | >64 | 32 | >64 | >64 | – | –
14 | KKKKKIIIIIKKKKD [D4] | 32 | 16 | >64 | >64 | – | –
15 | KKKKKIIIIIKKKKK [D5] | 16 | 2 | >64 | >64 | – | –
16 | KKKLLLLLKKK [S4] | 16 | 8 | >64 | – | – | –

Row | Substance | MIC E. coli (E. coli DH5α; DH5α, 18 h) [µM] | MIC S. xylosus (Staphylococcus xylosus; 18 h) [µM] | Toxicity LD50 [1] [µM] | Toxicity MTC (minimum toxic concentration) [2] [µM] | MIC E. coli (E. coli DH5α; [3]) [µM] | MIC S. xylosus (Staphylococcus xylosus; [3]) [µM]
17 | KKKVVVVVKKK [S6] | 64 | 8 | >64 | – | – | –
18 | KLILKRKRKRILIK [A4] | 32 | 16 | >64 | >64 | – | –
19 | KRKGKRK [H7, KRKGKRK] | >64 | 64 | >64 | >64 | – | –
20 | KRKGSGKRK [H8] | >64 | >64 | >64 | >64 | – | –
21 | KRKIKRK [H5, KRKIKRK] | >64 | >64 | >64 | >64 | – | –
22 | KRKIL [C8, KRKIL] | >64 | >64 | >64 | >64 | – | –
23 | KRKILI [C7, KRKILI] | >64 | >64 | >64 | >64 | – | –
24 | KRKILIKRK [H3] | >64 | 64 | >64 | >64 | – | –
25 | KRKILIL [C6, KRKILIL] | >64 | >64 | >64 | >64 | – | –
26 | KRKILILI [C5] | >64 | >64 | >64 | >64 | – | –
27 | KRKILILIGSG [M4] | >64 | >64 | >64 | >64 | – | –
28 | KRKILILIK [C4] | 32 | 8 | >64 | >64 | – | –
29 | LKLLKKLLKKLLKLL [KL-helix] | 4 | 2 | – | 8.0 | – | –
30 | RRRFFFFFRRR [S7] | 4 | 0.5 | >64 | – | – | –
31 | RRRIIIIIRRR [S1] | 8 | 2 | >64 | – | – | –
32 | RRRLLLLLRRR [S3] | 8 | 1 | >64 | – | – | –
